Tests used:
Format in all cases: in vivo
BALB/c (H-2d) mice [1] = assay: Serum β-gal-specific IgG ELISA after i.n. or s.c. immunization with β-gal plus adjuvant; conditions: for β-gal specific IgG titer in sera, i.n. administration: β-gal 30 μg/dose with or without adjuvant 10 μg, end point titers (FIG. 11; FIG. 2)
Description: Experimental protocol: six-eight weeks-old female BALB/c (H-2d) mice were purchased from Harlan Winkelmann GmbH (Borchen, Germany) and treated in accordance with local and European Community guidelines. Groups of 5 mice each were immunized on day 1, 14 and 28 with 30 μg of β-gal (Boehringer, Mannheim, Germany), alone or as an admixture with 10 μg c-diGMP or with 10 μpg c-diAMP. For intranasal (i.n.) immunization, 10 μl were applied to each naris, whereas for the s.c. injection β-gal with or without c-diGMP or c-diAMP was resuspended in a volume of 20 μl PBS per animal. Serum samples were collected at day 38 after immunization and stored at −20° C. prior to determination of β-gal-specific antibodies. 96-well Nunc-Immuno MaxiSorp assay plates (Nunc, Roskilde, Denmark) were coated with 100 μl of β-gal (Boehringer, Mannheim, Germany) at 5 μg/ml in 0.05 M carbonate buffer (pH 8.2) per well. Serial two-fold dilutions of sera in PBS with 1% BSA and 0.05% Tween 20 were added (100 μl/well), and plates incubated for 16h at 37° C. After washing, biotinylated γ-chain-specific goat anti-mouse IgG (Sigma Chemie, Deisenhofen, Germany) was added, and plates were incubated for an additional 1 h at 37° C. After four washes, 100 μl of peroxidase-conjugated streptavidin (Pharmingen) was added to cells and plates incubated at 37° C. for 30 min. After four washes, reactions were developed with ABTS in 0.1 M citrate-phosphate buffer (pH 4.35) containing 0.01% H2O2. Results for c-diGMP are shown as OD405 values after serial two-fold dilutions (FIG. 2). […] The effect of c-diGMP as an adjuvant was independent of the route of administration.
In contrast, in the presence of c-diAMP, i.n. administration of β-gal induced very high titers of specific IgG in all mice with titers higher than 500,000 (FIG. 11).
In view of the above in vitro results, additional in vivo studies have been conducted. […] Thus, the capacity of c-diGMP and c-diAMP, respectively, to stimulate efficient humoral immune responses was evaluated, by determining the serum titers of β-gal-specific antibodies in vaccinated mice.

BALB/c (H-2d) mice [2] = assay: β-gal-specific IgA in lung and vaginal lavages of immunized mice; conditions: for β-gal-specific IgA in lung lavages: i.n. immunization, day 38, versus β-gal alone (FIG. 4, FIG. 5)
Description: Experimental protocol: at day 38, mice were sacrificed and the final sampling was performed. Vaginal and lung lavages were obtained by flushing the organs with 1 ml of PBS supplemented with 50 mM EDTA, 0.1% BSA, and 10 mM PMSF. Lavages were then centrifuged to remove debris (10 min at 3000×g), and supernatant fluids were stored at −20° C. To determine the concentration of total IgA present in the lung and vaginal lavages, serial dilutions of the corresponding samples were incubated in microtiter plates that were previously coated with goat anti-mouse IgA (Sigma Chemie), as capture antibodies (100 μl/well). Serial dilutions of purified mouse IgA (Sigma Chemie) were used to generate a standard curve.
To investigate the capacity of c-diGMP and c-diAMP, respectively, to stimulate mucosal responses against antigens co-administered by the i.n. and s.c. route, the production of β-gal-specific IgA in lung was analyzed (FIG. 5 for c-diAMP and FIG. 4 for c-diGMP) from immunized animals, immunized according to the protocol described in Example 2.

spleen cells = assay: [3H]thymidine proliferation of spleen cells from vaccinated mice restimulated in vitro with β-gal; conditions: for T cell proliferation after i.n. and s.c. administration: versus β-gal alone; for proliferation of spleen cells, i.n. immunization / proliferation of spleen cells, s.c. immunization: day 38, in vitro restimulation with β-gal; for proliferation of spleen cells, i.n. immunization: low amounts of antigen (FIG. 6); for proliferation of spleen cells, s.c. immunization: [3H]thymidine (FIG. 6)
Description: Experimental protocol: Spleens were removed and pooled for analysis of cellular immune responses. Cells were grown in RPMI 1640 supplemented with 10% fetal calf serum, 100 U/ml of penicillin, 50 μg/ml of streptomycin, 5×10^−5 M 2-mercaptoethanol and 1 mM L-glutamine (GIBCO BRL, Karlsruhe, Germany) and maintained at 37° C. in a humidified 5% CO2 atmosphere. Spleen cell suspensions were adjusted to 5×10^6 cells/ml in complete medium, cells were seeded with 100 μl per well in a flat-bottomed 96-well microtiter plate (Nunc) and plates were incubated for 4 days in the presence of different concentrations of soluble β-gal. That is, T cell mediated immune responses were investigated at day 38 by measuring the proliferation after in vitro restimulation with β-Gal of cells which have been recovered from spleens before. Said spleen cells were obtained from vaccinated mice—said mice where immunized as described in Example 2—and incubated in the presence of different concentrations of the soluble β-Gal antigen. Each concentration was tested in quadruplicates. During the final 18 h of culture, 1 μCi of [3H]thymidine (Amersham International, Freiburg, Germany) was added to each well. Cells were then harvested on paper filters (Filtermat A; Wallac, Freiburg, Germany) by using a cell harvester (Inotech, Wohlen, Switzerland), and the amount of incorporated [3H]thymidine into the DNA of proliferating cells was determined by a β-scintillation counter (Wallac 1450, Micro-Trilux). The results are expressed as the arithmetic mean of [^3H]thymidine uptake in cpm.
Thirty eight days following vaccination, spleens cells were purified, re-stimulated in vitro in the presence of various amounts of β-galactosidase and their proliferative capacity was estimated by measuring the incorporation of [3H]thymidine into their DNA using a β-scintillation counter.

SMILES	β-gal specific IgG titer in sera, i.n. administration (BALB/c (H-2d) mice [1])	β-gal specific sIgA expression in vaginal lavage (BALB/c (H-2d) mice [2]; c-diAMP as adjuvant, i.n. (FIG. 5))	β-gal-specific IgA in lung lavages (BALB/c (H-2d) mice [2])	T cell proliferation after i.n. and s.c. administration (spleen cells)	proliferation of spleen cells, i.n. immunization (spleen cells)	proliferation of spleen cells, s.c. immunization (spleen cells)	β-gal specific IgG titer in sera (BALB/c (H-2d) mice [1]; 30 μg β-gal + 10 μg adjuvant, day 1, 14, 28, serum day 38, independent of route (i.n., s.c.), FIG. 2, FIG. 3)	β-gal-specific IgA in lung lavages (BALB/c (H-2d) mice [2]; listed as c-dGMP)	β-gal specific sIgA expression in vaginal lavage, s.c. route (BALB/c (H-2d) mice [2]; s.c. route (not shown))
Nc1ncnc2c1ncn2[C@@H]1O[C@@H]2COP(=O)(O)O[C@H]3[C@@H](O)[C@H](n4cnc5c(N)ncnc54)O[C@@H]3COP(=O)(O)O[C@H]2[C@H]1O [c-diAMP, cyclic bis(3′-5′)diadenylic acid]	higher than 500,000	detectable	significant increase	statistically significant increment	efficient proliferative response	further increase in proliferation	–	–	–
Nc1nc2c(ncn2[C@@H]2O[C@@H]3COP(=O)(O)O[C@H]4[C@@H](O)[C@H](n5cnc6c(=O)[nH]c(N)nc65)O[C@@H]4COP(=O)(O)O[C@H]3[C@H]2O)c(=O)[nH]1 [c-diGMP, cyclic bis(3′-5′)diguanylic acid]	increased expression	–	higher	statistically significant increment	efficient proliferative response	further increase in proliferation	remarkably increased	significant increase	does not lead to an enhanced expression

— patent US9597391B2, “Cyclic-dinucleotides and its conjugates as adjuvants and their uses in pharmaceutical compositions” (HELMHOLTZ_ZENTRUM FUER INFEKTIONSFORSCHUNG GMBH, priority 2005, dated 2017)
